Measurements: ChEMBL document CHEMBL5518230, “Identification of a Novel Selective CDK9 Inhibitor for the Treatment of CRC: Design, Synthesis, and Biological Activity Evaluation” (J Med Chem, 2024)

System: not listed separately
Test: Half life in human plasma measured upto 120 mins by LC-MS/MS analysis
Type: ADME, cell-free
Conditions: not given
CC(C)N1CCN(C(=O)c2ccnc(Nc3cc(-c4ccc5nnn(C(C)C)c5c4)ccn3)c2)CC1 showed a half-life greater than 289 min. CC(C)n1nnc2ccc(-c3ccnc(Nc4cc(C(=O)N5CCCC5)ccn4)c3)cc21 showed a half-life greater than 289 min.

System: HT-29
Test: Growth inhibition of human HT-29 cells incubated for 48 hrs by CCK-8 assay
Type: functional
Conditions: not given
CC(C)n1nnc2ccc(-c3ccnc(Nc4ccc(C(=O)N5CCOCC5)cn4)c3)cc21 showed a GI50 of 220 nM. Work on CC(C)N1CCN(C(=O)c2ccnc(Nc3cc(-c4ccc5nnn(C(C)C)c5c4)ccn3)c2)CC1 yielded a GI50 of 410 nM. In the case of CC(C)n1nnc2ccc(-c3ccnc(Nc4ccc(C(=O)N5CCN(C)CC5)cn4)c3)cc21, the GI50 is reported as 230 nM. CC(C)n1nnc2ccc(-c3ccnc(Nc4cc(C(=O)N5CCCC5)ccn4)c3)cc21 gave a GI50 of 420 nM.

Target: Cyclin-dependent kinase 1 (Homo sapiens, UniProt P06493)
Sequence (P06493 whole entry): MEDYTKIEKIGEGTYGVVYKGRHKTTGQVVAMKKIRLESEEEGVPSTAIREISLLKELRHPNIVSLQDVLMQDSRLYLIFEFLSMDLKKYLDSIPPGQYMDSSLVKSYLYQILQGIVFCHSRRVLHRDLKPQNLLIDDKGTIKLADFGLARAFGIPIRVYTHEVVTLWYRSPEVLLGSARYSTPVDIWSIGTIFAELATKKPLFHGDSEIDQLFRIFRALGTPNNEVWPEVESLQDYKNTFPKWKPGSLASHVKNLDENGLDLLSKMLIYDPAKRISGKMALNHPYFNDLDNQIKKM
Test: Inhibition of CDK1 (unknown origin)
Conditions: not given
CC(C)N1CCN(C(=O)c2ccnc(Nc3cc(-c4ccc5nnn(C(C)C)c5c4)ccn3)c2)CC1 showed an IC50 of 125 nM. For CC(C)n1nnc2ccc(-c3ccnc(Nc4cc(C(=O)N5CCCC5)ccn4)c3)cc21, the IC50 was 161 nM.

System: not listed separately
Test: Intrinsic microsomal clearance in human liver microsomes at 100 uM measured upto 60 mins in presence of NADPH by LC-MS/MS analysis
Type: ADME, Microsome
Conditions: read-out: CLH
In the case of CC(C)N1CCN(C(=O)c2ccnc(Nc3cc(-c4ccc5nnn(C(C)C)c5c4)ccn3)c2)CC1, the microsomal CLint at 100 µM is reported as 177 µL/min/mg. Work on CC(C)n1nnc2ccc(-c3ccnc(Nc4cc(C(=O)N5CCCC5)ccn4)c3)cc21 yielded a microsomal CLint at 100 µM of 79.8 µL/min/mg.

Target: Cyclin-dependent kinase 5 (Homo sapiens, UniProt Q00535)
Sequence (Q00535 whole entry): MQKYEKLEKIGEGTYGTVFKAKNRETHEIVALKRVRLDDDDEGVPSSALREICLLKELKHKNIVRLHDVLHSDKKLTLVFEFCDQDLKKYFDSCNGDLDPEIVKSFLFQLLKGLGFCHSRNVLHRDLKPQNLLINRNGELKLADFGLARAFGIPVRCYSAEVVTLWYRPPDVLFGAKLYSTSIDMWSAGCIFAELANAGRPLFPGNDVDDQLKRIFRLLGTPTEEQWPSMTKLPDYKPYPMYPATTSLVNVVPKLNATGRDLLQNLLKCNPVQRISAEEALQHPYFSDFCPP
Test: Inhibition of CDK5 (unknown origin)
Conditions: not given
CC(C)N1CCN(C(=O)c2ccnc(Nc3cc(-c4ccc5nnn(C(C)C)c5c4)ccn3)c2)CC1 gave an IC50 greater than 500 nM. Compound CC(C)n1nnc2ccc(-c3ccnc(Nc4cc(C(=O)N5CCCC5)ccn4)c3)cc21 has an IC50 greater than 500 nM.

Target: Cyclin-dependent kinase 12 (Homo sapiens, UniProt Q9NYV4)
Test: Inhibition of CDK12 (unknown origin)
Conditions: not given
In the case of CC(C)N1CCN(C(=O)c2ccnc(Nc3cc(-c4ccc5nnn(C(C)C)c5c4)ccn3)c2)CC1, the IC50 is reported as greater than 500 nM. For CC(C)n1nnc2ccc(-c3ccnc(Nc4cc(C(=O)N5CCCC5)ccn4)c3)cc21, the IC50 was greater than 500 nM.

Target: CYP2C9 (Homo sapiens, UniProt P11712)
Sequence (P11712 whole entry): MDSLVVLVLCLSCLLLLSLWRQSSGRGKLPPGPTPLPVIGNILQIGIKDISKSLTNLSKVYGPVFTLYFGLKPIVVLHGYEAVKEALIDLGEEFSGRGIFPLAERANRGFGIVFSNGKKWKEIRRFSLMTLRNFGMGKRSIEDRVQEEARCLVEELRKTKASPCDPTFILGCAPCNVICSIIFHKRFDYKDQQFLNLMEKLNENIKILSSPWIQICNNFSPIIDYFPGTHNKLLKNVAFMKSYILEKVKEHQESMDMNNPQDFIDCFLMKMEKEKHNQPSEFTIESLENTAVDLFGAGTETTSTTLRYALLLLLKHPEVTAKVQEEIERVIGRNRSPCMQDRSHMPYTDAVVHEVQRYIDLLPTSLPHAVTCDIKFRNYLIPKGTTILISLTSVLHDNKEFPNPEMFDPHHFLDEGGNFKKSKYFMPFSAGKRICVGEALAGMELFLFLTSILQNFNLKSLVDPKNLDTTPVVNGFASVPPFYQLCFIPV
Test: Inhibition of CYP2C9 in human liver microsomes using sulfaphenazole as […] at 10 uM preincubated for 10 mins followed by NADPH addition measured after 15 mins by LC-MS/MS analysis relative to control
Type: ADME, Microsome
Conditions: probe sulfaphenazole, time 25 min
CC(C)N1CCN(C(=O)c2ccnc(Nc3cc(-c4ccc5nnn(C(C)C)c5c4)ccn3)c2)CC1 gave an inhibition at 0.25 h, 10 µM of 56.3%. Compound CC(C)n1nnc2ccc(-c3ccnc(Nc4cc(C(=O)N5CCCC5)ccn4)c3)cc21 has an inhibition at 0.25 h, 10 µM of 29.6%.

Target: Cyclin-dependent kinase 6 (Homo sapiens, UniProt Q00534)
Test: Inhibition of CDK6 (unknown origin)
Conditions: not given
Work on CC(C)N1CCN(C(=O)c2ccnc(Nc3cc(-c4ccc5nnn(C(C)C)c5c4)ccn3)c2)CC1 yielded an IC50 of 33.1 nM. For CC(C)n1nnc2ccc(-c3ccnc(Nc4cc(C(=O)N5CCCC5)ccn4)c3)cc21, the IC50 was 11.5 nM.

Target: CYP2C19 (Homo sapiens, UniProt P33261)
Sequence (P33261 whole entry): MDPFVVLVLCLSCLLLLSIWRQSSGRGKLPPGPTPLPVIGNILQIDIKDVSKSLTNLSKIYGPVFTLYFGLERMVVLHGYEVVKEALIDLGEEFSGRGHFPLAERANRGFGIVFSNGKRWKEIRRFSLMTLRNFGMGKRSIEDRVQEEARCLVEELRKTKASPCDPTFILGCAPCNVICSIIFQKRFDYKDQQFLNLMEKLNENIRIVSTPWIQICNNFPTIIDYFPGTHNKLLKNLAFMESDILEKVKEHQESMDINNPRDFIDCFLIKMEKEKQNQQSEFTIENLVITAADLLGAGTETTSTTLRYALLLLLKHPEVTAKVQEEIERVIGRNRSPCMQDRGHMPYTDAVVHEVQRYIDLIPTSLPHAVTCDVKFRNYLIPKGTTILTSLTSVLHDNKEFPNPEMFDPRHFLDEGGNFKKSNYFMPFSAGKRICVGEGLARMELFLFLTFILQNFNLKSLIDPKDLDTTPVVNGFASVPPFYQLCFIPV
Test: Inhibition of CYP2C19 in human liver microsomes using benzylnirvanol as […] at 10 uM preincubated for 10 mins followed by NADPH addition measured after 15 mins by LC-MS/MS analysis relative to control
Type: ADME, Microsome
Conditions: probe benzylnirvanol, time 25 min
Work on CC(C)N1CCN(C(=O)c2ccnc(Nc3cc(-c4ccc5nnn(C(C)C)c5c4)ccn3)c2)CC1 yielded an inhibition at 0.25 h, 10 µM of 48.3%. In the case of CC(C)n1nnc2ccc(-c3ccnc(Nc4cc(C(=O)N5CCCC5)ccn4)c3)cc21, the inhibition at 0.25 h, 10 µM is reported as 56.1%.

Target: Cyclin-dependent kinase 8 (Homo sapiens, UniProt P49336)
Sequence (P49336 whole entry): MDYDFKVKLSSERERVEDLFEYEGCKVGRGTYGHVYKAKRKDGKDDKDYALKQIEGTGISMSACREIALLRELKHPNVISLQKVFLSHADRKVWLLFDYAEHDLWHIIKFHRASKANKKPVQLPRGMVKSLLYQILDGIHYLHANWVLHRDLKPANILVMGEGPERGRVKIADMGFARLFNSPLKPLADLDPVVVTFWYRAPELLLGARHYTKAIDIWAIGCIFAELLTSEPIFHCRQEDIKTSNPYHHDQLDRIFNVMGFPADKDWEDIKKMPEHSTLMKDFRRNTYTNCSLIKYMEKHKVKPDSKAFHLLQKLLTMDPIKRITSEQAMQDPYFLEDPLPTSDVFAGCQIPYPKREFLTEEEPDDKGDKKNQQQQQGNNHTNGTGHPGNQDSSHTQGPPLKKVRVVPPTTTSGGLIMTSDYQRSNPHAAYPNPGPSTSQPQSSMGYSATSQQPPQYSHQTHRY
Test: Inhibition of CDK8 (unknown origin)
Conditions: not given
With CC(C)N1CCN(C(=O)c2ccnc(Nc3cc(-c4ccc5nnn(C(C)C)c5c4)ccn3)c2)CC1 the IC50 was greater than 500 nM. In the case of CC(C)n1nnc2ccc(-c3ccnc(Nc4cc(C(=O)N5CCCC5)ccn4)c3)cc21, the IC50 is reported as greater than 500 nM.

Target: Cyclin-dependent kinase 7 (Homo sapiens, UniProt P50613)
Sequence (P50613 whole entry): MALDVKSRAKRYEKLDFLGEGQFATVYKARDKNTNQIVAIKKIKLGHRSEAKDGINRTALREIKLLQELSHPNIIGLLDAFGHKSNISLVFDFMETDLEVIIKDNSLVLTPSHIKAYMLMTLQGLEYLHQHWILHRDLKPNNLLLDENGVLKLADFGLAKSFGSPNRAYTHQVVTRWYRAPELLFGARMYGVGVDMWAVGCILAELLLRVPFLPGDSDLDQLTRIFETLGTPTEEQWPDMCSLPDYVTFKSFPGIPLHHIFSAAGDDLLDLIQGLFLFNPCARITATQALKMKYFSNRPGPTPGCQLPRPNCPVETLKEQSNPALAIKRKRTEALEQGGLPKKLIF
Test: Inhibition of CDK7 (unknown origin)
Conditions: not given
In the case of CC(C)N1CCN(C(=O)c2ccnc(Nc3cc(-c4ccc5nnn(C(C)C)c5c4)ccn3)c2)CC1, the IC50 is reported as greater than 500 nM. CC(C)n1nnc2ccc(-c3ccnc(Nc4cc(C(=O)N5CCCC5)ccn4)c3)cc21 showed an IC50 greater than 500 nM.

Target: Cyclin-dependent kinase 2 (Homo sapiens, UniProt P24941)
Test: Inhibition of CDK2 (unknown origin)
Conditions: not given
Work on CC(C)N1CCN(C(=O)c2ccnc(Nc3cc(-c4ccc5nnn(C(C)C)c5c4)ccn3)c2)CC1 yielded an IC50 of 167 nM. Work on CC(C)n1nnc2ccc(-c3ccnc(Nc4cc(C(=O)N5CCCC5)ccn4)c3)cc21 yielded an IC50 of 134 nM.

System: HCT-116
Test: Growth inhibition of human HCT-116 cells incubated for 48 hrs by CCK-8 assay
Type: functional
Conditions: not given
For CC(C)n1nnc2ccc(-c3ccnc(Nc4ccc(C(=O)N5CCOCC5)cn4)c3)cc21, the GI50 was 350 nM. For CC(C)N1CCN(C(=O)c2ccnc(Nc3cc(-c4ccc5nnn(C(C)C)c5c4)ccn3)c2)CC1, the GI50 was 40 nM. Work on CC(C)n1nnc2ccc(-c3ccnc(Nc4ccc(C(=O)N5CCN(C)CC5)cn4)c3)cc21 yielded a GI50 of 250 nM. With CC(C)n1nnc2ccc(-c3ccnc(Nc4cc(C(=O)N5CCCC5)ccn4)c3)cc21 the GI50 was 80 nM.

Target: CDK9/cyclin T1 (Homo sapiens) (UniProt O60563+P50750)
Test: Inhibition of CDK9/Cyclin T1 (unknown origin) using PDKtide substrate at 500 nM incubated for 60 mins by ADP-Glo kinase assay relative to control
Type: protein-complex assay
Conditions: not given
Work on CC(C)n1nnc2ccc(-c3ccnc(Nc4ccc(C(=O)N5CCOCC5)cn4)c3)cc21 yielded an inhibition of 101%.

System: not listed separately
Test: Half life in human liver microsomes at 100 uM measured upto 60 mins in presence of NADPH by LC-MS/MS analysis
Type: ADME, Microsome
Conditions: not given
In the case of CC(C)N1CCN(C(=O)c2ccnc(Nc3cc(-c4ccc5nnn(C(C)C)c5c4)ccn3)c2)CC1, the half-life at 100 µM is reported as 7.8 min. Compound CC(C)n1nnc2ccc(-c3ccnc(Nc4cc(C(=O)N5CCCC5)ccn4)c3)cc21 has a half-life at 100 µM of 17.4 min.

Target: Cyclin-dependent kinase 4 (Homo sapiens, UniProt P11802)
Sequence (P11802 whole entry): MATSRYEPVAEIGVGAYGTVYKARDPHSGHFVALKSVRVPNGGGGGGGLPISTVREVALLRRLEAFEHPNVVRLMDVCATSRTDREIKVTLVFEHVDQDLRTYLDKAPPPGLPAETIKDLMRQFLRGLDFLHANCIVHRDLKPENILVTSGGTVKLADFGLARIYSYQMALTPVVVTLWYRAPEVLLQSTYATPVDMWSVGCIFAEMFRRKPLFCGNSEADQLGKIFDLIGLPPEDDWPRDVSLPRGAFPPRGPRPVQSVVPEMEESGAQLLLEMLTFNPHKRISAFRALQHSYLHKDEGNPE
Test: Inhibition of CDK4 (unknown origin)
Conditions: not given
CC(C)N1CCN(C(=O)c2ccnc(Nc3cc(-c4ccc5nnn(C(C)C)c5c4)ccn3)c2)CC1 showed an IC50 greater than 500 nM. In the case of CC(C)n1nnc2ccc(-c3ccnc(Nc4cc(C(=O)N5CCCC5)ccn4)c3)cc21, the IC50 is reported as 35.6 nM.

Target: CDK9/cyclin T1 (Homo sapiens, UniProt P50750)
Sequence (O60563 whole entry): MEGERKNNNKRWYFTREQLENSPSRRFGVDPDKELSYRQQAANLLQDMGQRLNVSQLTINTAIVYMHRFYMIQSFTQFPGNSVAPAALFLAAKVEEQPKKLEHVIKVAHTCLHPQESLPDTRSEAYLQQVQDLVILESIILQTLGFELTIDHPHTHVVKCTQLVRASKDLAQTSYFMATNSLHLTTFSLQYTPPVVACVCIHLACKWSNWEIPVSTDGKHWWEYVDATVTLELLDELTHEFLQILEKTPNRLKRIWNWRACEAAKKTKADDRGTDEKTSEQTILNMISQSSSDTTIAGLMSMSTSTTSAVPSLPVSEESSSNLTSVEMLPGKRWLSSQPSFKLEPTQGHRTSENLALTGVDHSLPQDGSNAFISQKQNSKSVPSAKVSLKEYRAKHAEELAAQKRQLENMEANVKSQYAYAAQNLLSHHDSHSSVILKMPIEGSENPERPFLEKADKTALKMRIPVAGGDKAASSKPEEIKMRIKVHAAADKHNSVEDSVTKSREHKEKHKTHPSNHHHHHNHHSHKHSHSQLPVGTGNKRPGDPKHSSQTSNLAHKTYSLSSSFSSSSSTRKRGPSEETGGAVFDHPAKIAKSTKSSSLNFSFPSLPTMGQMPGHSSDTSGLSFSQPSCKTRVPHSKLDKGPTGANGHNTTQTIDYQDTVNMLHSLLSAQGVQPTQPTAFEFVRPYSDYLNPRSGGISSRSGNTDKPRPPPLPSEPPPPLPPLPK
Sequence (P50750 whole entry): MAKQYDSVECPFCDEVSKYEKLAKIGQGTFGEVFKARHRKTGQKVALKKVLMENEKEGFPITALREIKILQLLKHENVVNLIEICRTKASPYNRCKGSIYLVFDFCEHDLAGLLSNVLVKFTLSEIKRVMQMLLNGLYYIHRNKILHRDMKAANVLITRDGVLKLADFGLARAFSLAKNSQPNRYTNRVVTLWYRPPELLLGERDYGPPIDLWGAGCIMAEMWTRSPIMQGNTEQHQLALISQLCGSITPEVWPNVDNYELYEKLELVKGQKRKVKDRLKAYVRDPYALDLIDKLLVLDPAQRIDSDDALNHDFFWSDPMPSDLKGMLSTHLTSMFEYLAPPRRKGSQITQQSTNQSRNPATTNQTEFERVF
Test: Inhibition of CDK9/Cyclin T1 (unknown origin) using PDKtide substrate incubated for 60 mins by ADP-Glo kinase assay
Type: protein-complex assay
Conditions: not given
CC(C)n1nnc2ccc(-c3ccnc(Nc4ccc(C(=O)N5CCOCC5)cn4)c3)cc21 gave an IC50 of 9.43 nM. Work on CC(C)N1CCN(C(=O)c2ccnc(Nc3cc(-c4ccc5nnn(C(C)C)c5c4)ccn3)c2)CC1 yielded an IC50 of 3.37 nM. Compound CC(C)n1nnc2ccc(-c3ccnc(Nc4ccc(C(=O)N5CCN(C)CC5)cn4)c3)cc21 has an IC50 of 4.39 nM. CC(C)n1nnc2ccc(-c3ccnc(Nc4cc(C(=O)N5CCCC5)ccn4)c3)cc21 showed an IC50 of 1.32 nM.

Target: CYP3A4 (Homo sapiens, UniProt P08684)
Sequence (P08684 whole entry): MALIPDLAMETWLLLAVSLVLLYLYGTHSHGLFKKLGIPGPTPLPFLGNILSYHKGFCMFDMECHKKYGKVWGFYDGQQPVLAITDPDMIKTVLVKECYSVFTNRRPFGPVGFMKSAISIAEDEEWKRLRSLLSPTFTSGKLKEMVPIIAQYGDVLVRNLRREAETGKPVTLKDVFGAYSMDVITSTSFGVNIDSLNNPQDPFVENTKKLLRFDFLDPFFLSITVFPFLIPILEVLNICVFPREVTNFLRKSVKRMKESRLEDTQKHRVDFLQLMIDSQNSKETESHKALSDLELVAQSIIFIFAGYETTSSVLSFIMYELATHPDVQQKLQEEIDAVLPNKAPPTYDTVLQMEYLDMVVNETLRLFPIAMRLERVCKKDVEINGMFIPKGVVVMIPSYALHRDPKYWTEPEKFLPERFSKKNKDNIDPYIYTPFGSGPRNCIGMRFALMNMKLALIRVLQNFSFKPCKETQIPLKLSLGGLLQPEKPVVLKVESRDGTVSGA
Test: Inhibition of CYP3A4 in human liver microsomes using ketoconazole as […] at 10 uM preincubated for 10 mins followed by NADPH addition measured after 15 mins by LC-MS/MS analysis relative to control
Type: ADME, Microsome
Conditions: probe ketoconazole, time 25 min
Work on CC(C)N1CCN(C(=O)c2ccnc(Nc3cc(-c4ccc5nnn(C(C)C)c5c4)ccn3)c2)CC1 yielded an inhibition at 0.25 h, 10 µM of 15.7%. CC(C)n1nnc2ccc(-c3ccnc(Nc4cc(C(=O)N5CCCC5)ccn4)c3)cc21 gave an inhibition at 0.25 h, 10 µM of 0%.

Target: Cyclin-dependent kinase 9 (Homo sapiens, UniProt P50750)
Sequence (P50750 whole entry): as the sequence (P50750 whole entry) above
Test: Inhibition of CDK9 (unknown origin)
Conditions: not given
Work on CC(C)N1CCN(C(=O)c2ccnc(Nc3cc(-c4ccc5nnn(C(C)C)c5c4)ccn3)c2)CC1 yielded an IC50 of 3.3 nM. In the case of CC(C)n1nnc2ccc(-c3ccnc(Nc4cc(C(=O)N5CCCC5)ccn4)c3)cc21, the IC50 is reported as 1.3 nM.

System: not listed separately
Test: Stability in human liver microsomes assessed as compound remaining at 100 uM measured upto 60 mins in presence of NADPH by LC-MS/MS analysis
Type: ADME, Microsome
Conditions: read-out: Stability
In the case of CC(C)N1CCN(C(=O)c2ccnc(Nc3cc(-c4ccc5nnn(C(C)C)c5c4)ccn3)c2)CC1, the remaining at 1 h, 100 µM is reported as 0.5%. Compound CC(C)n1nnc2ccc(-c3ccnc(Nc4cc(C(=O)N5CCCC5)ccn4)c3)cc21 has a remaining at 1 h, 100 µM of 9%.

Target: T1, CYP1A2 (Homo sapiens, UniProt P05177)
T1 sequence (P05177 whole entry): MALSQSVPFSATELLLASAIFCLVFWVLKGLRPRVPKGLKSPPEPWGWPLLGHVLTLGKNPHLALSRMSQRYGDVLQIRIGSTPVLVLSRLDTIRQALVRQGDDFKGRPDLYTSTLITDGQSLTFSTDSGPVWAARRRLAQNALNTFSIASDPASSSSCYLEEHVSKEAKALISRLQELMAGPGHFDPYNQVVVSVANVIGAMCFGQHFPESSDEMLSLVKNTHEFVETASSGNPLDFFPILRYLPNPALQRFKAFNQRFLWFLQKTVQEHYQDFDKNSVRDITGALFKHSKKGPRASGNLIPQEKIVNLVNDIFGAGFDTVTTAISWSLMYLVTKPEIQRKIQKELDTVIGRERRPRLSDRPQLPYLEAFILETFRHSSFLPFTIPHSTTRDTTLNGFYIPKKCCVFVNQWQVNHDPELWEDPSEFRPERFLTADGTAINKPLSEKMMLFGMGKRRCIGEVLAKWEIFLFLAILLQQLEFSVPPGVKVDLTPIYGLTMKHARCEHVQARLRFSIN
Test: Inhibition of CYP1A2 in human liver microsomes using alpha-naphthoflavone as […] at 10 uM preincubated for 10 mins followed by NADPH addition measured after 15 mins by LC-MS/MS analysis relative to control
Type: ADME, Microsome
Conditions: time 25 min
Work on CC(C)N1CCN(C(=O)c2ccnc(Nc3cc(-c4ccc5nnn(C(C)C)c5c4)ccn3)c2)CC1 yielded an inhibition at 0.25 h, 10 µM of 25.1%. In the case of CC(C)n1nnc2ccc(-c3ccnc(Nc4cc(C(=O)N5CCCC5)ccn4)c3)cc21, the inhibition at 0.25 h, 10 µM is reported as 12.2%.

System: not listed separately
Test: Intrinsic clearance in human liver microsomes at 100 uM measured upto 60 mins in presence of NADPH by LC-MS/MS analysis
Type: ADME, Microsome
Conditions: 1 h
Compound CC(C)N1CCN(C(=O)c2ccnc(Nc3cc(-c4ccc5nnn(C(C)C)c5c4)ccn3)c2)CC1 has a CLH of 158.9 µL/min/mg. CC(C)n1nnc2ccc(-c3ccnc(Nc4cc(C(=O)N5CCCC5)ccn4)c3)cc21 showed a CLH of 71.8 µL/min/mg.

Target: CYP2D6 (Homo sapiens, UniProt P10635)
Sequence (P10635 whole entry): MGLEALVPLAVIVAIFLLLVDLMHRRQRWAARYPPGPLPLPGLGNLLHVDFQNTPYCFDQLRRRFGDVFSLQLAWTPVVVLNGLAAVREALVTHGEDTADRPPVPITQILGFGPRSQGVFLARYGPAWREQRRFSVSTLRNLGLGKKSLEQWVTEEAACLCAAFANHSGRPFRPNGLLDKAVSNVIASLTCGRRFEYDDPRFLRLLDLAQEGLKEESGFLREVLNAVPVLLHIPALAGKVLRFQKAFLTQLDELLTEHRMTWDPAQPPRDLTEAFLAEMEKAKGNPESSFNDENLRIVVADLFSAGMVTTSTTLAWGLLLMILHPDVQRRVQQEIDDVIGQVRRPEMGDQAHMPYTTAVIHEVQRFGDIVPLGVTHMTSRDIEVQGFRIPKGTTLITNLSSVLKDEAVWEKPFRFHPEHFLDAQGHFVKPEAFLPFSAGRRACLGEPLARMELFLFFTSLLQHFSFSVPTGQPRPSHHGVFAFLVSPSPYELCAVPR
Test: Inhibition of CYP2D6 in human liver microsomes using quinidine as […] at 10 uM preincubated for 10 mins followed by NADPH addition measured after 15 mins by LC-MS/MS analysis relative to control
Type: ADME, Microsome
Conditions: time 25 min
CC(C)N1CCN(C(=O)c2ccnc(Nc3cc(-c4ccc5nnn(C(C)C)c5c4)ccn3)c2)CC1 gave an inhibition at 0.25 h, 10 µM of 7.1%. For CC(C)n1nnc2ccc(-c3ccnc(Nc4cc(C(=O)N5CCCC5)ccn4)c3)cc21, the inhibition at 0.25 h, 10 µM was 0%.
